Experimental data taken from patent US20250250252A1, “PIPERIDINYLBENZONITRILE DERIVATIVES AS INHIBITORS OF GLUTAMINYL-PEPTIDE CYCLOTRANSFERASE AND GLUTAMINYL-PEPTIDE CYCLOTRANSFERASE LIKE PROTEIN” (Boehringer Ingelheim International GmbH, priority 2024, published 2025).
Read-outs that look alike come from different tables or passages of the source.

Columns and labels:
QPCT = QPCT (Homo sapiens (Human), UniProt Q16769); experiment: Assay A: biochemical QPCT activity assay (MALDI-TOF MS); details: read-out: Inhibition of QPCT: IC50
Experimental: (§1) QPCT or QPCTL dependent conversion of N-terminal glutamine to pyroglutamate of CD47 was monitored via MALDI-TOF MS. Test compounds were dissolved in 100% DMSO and serially diluted into clear 1,536-well microtiter plates. Enzymatic reactions were set up in assay buffer containing 20 mM Tris pH 7.5, 0.1 mM TCEP, 0.01% BSA, and 0.001% Tween20. […] The plates were incubated for 10 min in a humidified incubator at 24° C. Subsequently, 2.5 μL of CD47 peptide substrate surrogate (^19[…]^33) was added to each well (final concentration: 10 μM for QPCTL/20 μM for QPCT). The plates were mixed for 30 sec at 1,000 rpm and subsequently incubated for 40 min in a humidified incubator at 24° C. […] The plates were sealed with an adhesive foil, mixed for 30 s at 1,000 rpm and stored at room temperature until preparation of the MALDI target plates. […] QPCT or QPCTL activity was monitored by calculating the ratio between product and internal standard signals followed by normalization to high (100% activity) and low (0% activity) controls. Determination of compound potencies was obtained by fitting the dose-response data to a four-parameter logistical equation.

murine hepatocytes = experiment: Assay E: Stability in murine hepatocytes; assay type: in vitro ADME, mouse; details: 1 μM
Experimental: The metabolic degradation of the test compound is assayed in a murine hepatocyte suspension.
Murine hepatocytes (typically cryopreserved) are incubated in an appropriate buffer system (e.g. Dulbecco's modified eagle medium plus 3.5 μg glucagon/500 mL, 2.5 mg insulin/500 mL and 3.75 mg/500 mL hydrocortison) containing 5% species serum.
Following a (typically) 30 min preincubation in an incubator (37° C., 10% CO2) 5 μl of test compound solution (80 μM; from 2 mM in DMSO stock solution diluted 1:25 with medium) are added into 395 μl hepatocyte suspension (cell density in the range 0.25-5 Mio cells/mL, typically 1 Mio cells/mL; final concentration of test compound 1 μM, final DMSO concentration 0.05%).
The cells are incubated for six hours (incubator, orbital shaker) and samples (2 μl) are taken at 0, 0.5, 1, 2, 4 and 6 hours. Samples are transferred into acetonitrile and pelleted by centrifugation (5 min). The supernatant is transferred to a new 96-deepwell plate, evaporated under nitrogen and resuspended.
CLint is calculated as follows CL_[…]=Dose/AUC=(C0/CD)/(AUD+clast/k)×1000/60. C0: initial concentration in the incubation [μM], CD: cell density of vital cells [10e6cells/mL], AUD: area under the data [μM×h], clast: concentration of last data point [μM], k: slope of the regression line for parent decline [h−1].
The calculated in vitro hepatic intrinsic clearance can be scaled up to the intrinsic in vivo hepatic Clearance and used to predict hepatic in vivo blood clearance (CL) by the use of a liver model (well stirred model).
CL_[…]_INVIVO[ml/min/kg]=(CL_[…][μL/min/10e6cells]×hepatocellularity[10e6cells/g liver]×liver factor[g/kg bodyweight])/1000
CL[ml/min/kg]=CL_[…]_INVIVO[ml/min/kg]×hepatic blood flow[ml/min/kg]/(CL_[…]_INVIVO[ml/min/kg]+hepatic blood flow[ml/min/kg])
Hepatocellularity,mouse:120×10e6cells/g liver
Liver factor,mouse:55 g/kg bodyweight
Blood flow,mouse:90 ml/(min×kg)

[1] = tested on: SIRPα signalling induced by A549 cells; experiment: Assay B: SIRPα signalling assay using A549 cells; assay type: cell-based; details: Homo sapiens, read-out: Inhibition of SIRPα signalling induced by A549 cells: IC50
Experimental: Two cell types are independently used: the Raji cell line (lymphoblast-like human cell line derived from B lymphocytes from a Burkitt's lymphoma patient in 1963) and A549 cells (adenocarcinomic human alveolar basal epithelial cells).
Test compounds were dissolved in 100% DMSO and serially diluted into a white 384-well microtiter cell culture plate (PerkinElmer #60076780 in case of Raji assay; PDL-coated plates Greiner #781945 in case of A549 assay). 5000 Raji cells (ATCC #CC86) or 5000 A549 cells (ATCC #CCL-185) in Assay Complete Cell Plating reagent 30 (DiscoverX 93-0563R30B) were added per well. The assay plate was incubated for 48 h at 37° C., 95% humidity and 5% CO2. 15000 reporter cells (Jurkat PathHunter SIRPαV1, DiscoverX #93-1135C19) were added to each well, and the plate was incubated for 5 h at 37° C., 95% humidity and 5% CO2. Bioassay reagent 1 of the PathHunter Bioassay detection kit (DiscoverX 93-0001) was added to each well of the plate using a multichannel pipette followed by a 15 min incubation at room temperature. Afterwards bioassay reagent 2 was added followed by 60 min incubation at room temperature (incubation in the dark).
The analysis of the data was performed using the luminescence signal generated by betagalactosidase in the PathHunter reporter cell line. The luminescence measurement was done using a Pherastar Multi-Mode Reader. Dose-response curves & IC50 data were calculated with 4-parameter sigmoidal dose response formula.

QPCTL = QPCTL (Homo sapiens (Human), UniProt Q9NXS2); experiment: Assay A: biochemical QPCTL activity assay (MALDI-TOF MS); details: read-out: Inhibition of QPCTL: IC50
Experimental: as §1

CYP3A4 mRNA = experiment: Assay D: CYP induction screening assay in primary human hepatocytes; assay type: in vitro ADME; details: 48 h
Experimental: Cryopreserved plateable human hepatocytes (single donor, BioIVT) were thawed and plated in Collagen-I coated 96-well-plates at a cell density of 0.07 million cells per well.
After a 6 h attachment period, the seeding medium was replaced by serum-free William's medium E supplemented with Matrigel (0.25 mg/ml) and allowed to recover overnight. 24 h post-seeding, serum-free Williams E medium containing the test compound at a final concentration of 10 μM and a final DMSO content of 0.1% and 0.1% DMSO (solvents treated control), respectively, was added to predefined wells. Exposure solutions were renewed after 24 h.
After 48 h of treatment in total, the effect of the test compounds on CYP3A4 mRNA expression was assessed using the QuantiGene Plex Gene Expression Assay. Hepatocytes were lysed and total RNA was extracted using the QuantiGene Sample Processing Kit according to the instructions of the manufacturer.
mRNA quantification was conducted using a customized QuantiGene Plex Panel to analyse CYP3A4 and the housekeeper genes RPL32, EIF4E2 and GUSB according to the instructions of the manufacturer and measured on a Luminex™ instrument. Signal was reported as median fluorescence intensity (MFI), which is proportional to the number of target RNA molecules present in the sample.
For calculation of CYP3A4 mRNA induction, the signal for CYP3A4 was normalized against the geometric mean of the signal obtained for the housekeeper genes for hepatocytes exposed to test compounds in relation to solvent-treated samples according to the following equation:
n-fold induction=(MFI CYP3A4 (treated)/Xgeo MFI (RPL32,EIF4E2,GUSB))/(MFI CYP3A4 (solvent control)/Xgeo MFI (RPL32,EIF4E2,GUSB))

[2] = Assay C: Permeability in CACO-2 cells; assay type: in vitro ADME; details: human; for efflux ratio: Caco-2, pH 7.2; for Papp A→B: pH 7.2, CACO-2 cells
Experimental: (§2) Caco-2 cells (1-2×10^5 cells/1 cm^2 area) are seeded on filter inserts (Costar transwell polycarbonate or PET filters, 0.4 μm pore size) and cultured (DMEM) for 10 to 25 days. Compounds are dissolved in appropriate solvent (like DMSO, 1-20 mM stock solutions). […] The transport solution (TL) is applied to the apical or basolateral donor side for measuring A-B or B-A permeability (3 filter replicates), respectively. Samples are collected at the start and end of experiment from the donor and at various time intervals for up to 2 hours also from the receiver side for concentration measurement by HPLC-MS/MS or scintillation counting. Sampled receiver volumes are replaced with fresh receiver solution.
(§3) Efflux ratio (ER)=permeability B-A/permeability A-B

[3] = tested on: SIRPα signalling induced by Raji cells; experiment: Assay B: SIRPα signalling assay using Raji cells; assay type: cell-based; details: Homo sapiens, read-out: Inhibition of SIRPα signalling induced by Raji cells: IC50
Experimental: Bioassay reagent 1 of the PathHunter Bioassay detection kit (DiscoverX 93-0001) was added to each well of the plate using a multichannel pipette followed by a 15 min incubation at room temperature. Afterwards bioassay reagent 2 was added followed by 60 min incubation at room temperature (incubation in the dark).
The analysis of the data was performed using the luminescence signal generated by betagalactosidase in the PathHunter reporter cell line. The luminescence measurement was done using a Pherastar Multi-Mode Reader.

CACO-2 cells = experiment: Assay C: Permeability in CACO-2 cells; assay type: in vitro ADME; details: pair comparison without/with 4-fluoropiperidyl
Experimental: as §2, §3

[4] = Assay C, permeability B-A/permeability A-B, read-out: Efflux Ratio
[5] = pair comparison without/with 4-fluoropiperidyl, read-out: Efflux ratio (BA/AB)

Chain of QPCT (Q16769 29-361): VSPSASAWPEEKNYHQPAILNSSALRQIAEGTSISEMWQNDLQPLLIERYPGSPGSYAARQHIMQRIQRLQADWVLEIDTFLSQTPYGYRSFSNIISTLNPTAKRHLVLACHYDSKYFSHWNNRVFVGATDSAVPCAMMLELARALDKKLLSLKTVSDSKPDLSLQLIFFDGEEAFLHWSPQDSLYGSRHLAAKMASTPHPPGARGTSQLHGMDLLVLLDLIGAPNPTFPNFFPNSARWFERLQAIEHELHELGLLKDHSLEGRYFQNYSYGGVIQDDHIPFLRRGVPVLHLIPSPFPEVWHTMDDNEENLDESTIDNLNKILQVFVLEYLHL
Chain of QPCTL (Q9NXS2 whole entry): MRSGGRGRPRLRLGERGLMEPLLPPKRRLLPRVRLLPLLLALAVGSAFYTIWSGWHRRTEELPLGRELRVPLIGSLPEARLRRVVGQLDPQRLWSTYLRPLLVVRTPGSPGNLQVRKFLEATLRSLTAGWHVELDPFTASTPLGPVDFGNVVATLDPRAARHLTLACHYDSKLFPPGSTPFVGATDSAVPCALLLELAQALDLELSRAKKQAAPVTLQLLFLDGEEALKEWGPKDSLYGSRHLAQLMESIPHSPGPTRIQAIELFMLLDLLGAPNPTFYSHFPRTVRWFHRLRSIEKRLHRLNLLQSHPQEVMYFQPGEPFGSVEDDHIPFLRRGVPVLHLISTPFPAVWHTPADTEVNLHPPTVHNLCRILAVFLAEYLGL

SMILES | IC50 (QPCT) [nM] | Mouse Hepatocyte Stability QH (murine hepatocytes) [%] | IC50 [1] [nM] | IC50 (QPCTL) [nM] | n-fold induction of CYP3A4 at 10 μM (CYP3A4 mRNA) [n-fold] | efflux ratio [2, 4] | Papp A→B ([2]; Assay C) [×10⁻⁶ cm/s] | IC50 [3] [nM] | efflux ratio [2, 5] | CACO2 Perm. (CACO-2 cells)
Cn1cc(-c2ccc(-c3ccc(F)nc3)c(N3CCC(c4nncn4C)CC3)c2C#N)cn1 [Compound 35, reference compound] | 4 | 16 | 9 | 2 | 3.0 | 12.2 | 4.9 | 28 |  | 
Cn1cnnc1C1CCN(c2c(-c3ccc(F)nc3)ccc(-c3ccnc(N)c3)c2C#N)CC1 [Compound 44, reference compound] | 5 | 65 | 67 | 1 | 1.0 | 47.9 | 0.5 | 121 |  | 
Cn1cnnc1C1(F)CCN(c2c(C#N)cc(C(C)(C)O)cc2-c2ccc(F)nc2)CC1 [Example 1] | 1 | 23 | 88 | 1 | 2.2 | 11.9 | 4.2 | 26 |  | 
Cc1ncc(-c2cc(C#N)c(N3CCC(F)(c4nncn4C)CC3)c(-c3ccc(F)nc3)c2)o1 [Example 2] | 4 | 15 | 36 | 2 | 1.6 | 3.3 | 26 | 180 |  | 
Cc1nn(C)c(C)c1-c1cc(C#N)c(N2CCC(F)(c3nncn3C)CC2)c(-c2ccc(F)nc2)c1 [Example 3] | 5 | 25 | 45 | 4 | 1.7 | 7.8 | 11 | 330 |  | 
Cc1nn(C)cc1-c1cc(C#N)c(N2CCC(F)(c3nncn3C)CC2)c(-c2ccc(F)nc2)c1 [Example 4] | 3 | 21 | 26 | 2 | 2.0 | 8.8 | 5 | 90 |  | 
Cn1cc(-c2cc(C#N)c(N3CCC(F)(c4nncn4C)CC3)c(-c3ccc(F)nc3)c2)cn1 [Example 5] | 2 | <12 | 25 | 2 | 7.7 | 6.7 | 5.4 | 52 |  | 
Cn1cnnc1C1(F)CCN(c2c(C#N)cc(-c3cccnc3)cc2-c2ccc(F)nc2)CC1 [Example 6] | 4 | 35 | 33 | 3 | 1.8 | 4.6 | 19 | 139 |  | 
Cc1ncc(-c2cc(C#N)c(N3CCC(F)(c4nncn4C)CC3)c(-c3ccc(F)nc3)c2)cn1 [Example 7] | 4 | 48 | 37 | 3 | 0.7 | 7.9 | 4.8 | 100 |  | 
Cn1cnnc1C1(F)CCN(c2c(C#N)cc(-c3ccnnc3)cc2-c2ccc(F)nc2)CC1 [Example 8] | 3 | 20 | 651 | 2 | 0.9 | 20.3 | 0.7 | 267 |  | 
Cn1cnnc1C1(F)CCN(c2c(C#N)cc(Cl)nc2-c2ccc(F)nc2)CC1 [Example 18 in EP 23161417.3] |  |  |  |  |  |  |  |  | 1 | 66.0 10^−6 cm/sec
Cn1cnnc1C1CCN(c2c(C#N)cc(Cl)nc2-c2ccc(F)nc2)CC1 [Example 18 in WO 2024/020517] |  |  |  |  |  |  |  |  | 3.3 | 23.0 10^−6 cm/sec
Cn1cncc1C1CCN(c2c(C#N)cccc2-c2ccc(F)nc2)CC1 [QP5038, reference compound] |  | 97 | 6 |  | 58.5 | 0.8 | 61 | 21 |  | 
